Like-named read-outs stand apart in the source and are kept apart here.

We go through 16 compounds from US12227501B2, “3-amino-2-[2-(acylamino)pyridin-4-yl]-1,5,6,7-tetrahydro-4h-pyrrolo[3,2-c]pyridin-4-one as CSNK1 inhibitors” (Bayer Aktiengesellschaft, priority 2019, dated 2025).

What all share (type): biochemical
Assay [1] has as its target T1, human CSNK1A1 (Homo sapiens (Human), UniProt P48729). Nature of the assay: CSNK1A1 Assay 2 (ADP-Glo, 1 μM ATP). The following applies: substrate biotin-Ahx-KRRRAL-pS-VASLPGL, read-out: CSNK1A1 Assay 2 IC50 [mol/l] (median). Summed up: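 Full-length human CSNK1A1 as an N-terminal GST fusion (baculovirus/insect cells) with biotinylated peptide substrate biotin-Ahx-KRRRAL-pS-VASLPGL and 1 μM ATP, in HEPES pH 7.5 buffer. Compounds were pre-incubated with enzyme (~0.0375 ng/μL) for 15 min at 22 °C. Generated ADP was read by ADP-Glo luminescence as the activity measure.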
A general note: ADP-Glo first removes unused ATP, then detects ADP through luciferase.

Assay [2] addresses T1, human CSNK1A1. Nature of the assay: CSNK1A1 High ATP Assay (ADP-Glo, 1 mM ATP). The conditions noted are these: read-out: CSNK1A1 high ATP assay IC50 [mol/l] (median). A digest of the protocol: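 GST-tagged full-length human CSNK1A1 from baculovirus-infected insect cells (typically about 0.4 ng/μL), pre-incubated with compound 15 min at 22 °C. Reaction with biotinylated peptide biotin-Ahx-KRRRAL-pS-VASLPGL at 1 mM ATP. ADP formed read by ADP-Glo luminescence.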

A further assay deals with human CSNK1D (Homo sapiens (Human), UniProt P48730). The assay is described as follows: CSNK1D Assay (ADP-Glo, 1 μM ATP). The following applies: read-out: CSNK1D IC50 [mol/l] (median). A digest of the protocol:
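GST-tagged full-length human CSNK1D from baculovirus-infected insect cells, typically ~0.5 ng/μL, with biotinylated peptide substrate and 1 μM ATP in HEPES pH 7.5 buffer. Compound is preincubated with enzyme 15 min at 22 °C. ADP formed is quantified by ADP-Glo luminescence.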

For assay [3], the target named is wild-type Epidermal Growth Factor Receptor (EGFR) (Homo sapiens (Human), UniProt P00533). Nature of the assay: WT-EGFR Kinase Assay (TR-FRET, 2 mM ATP). Background: In TR-FRET formats the signal depends on donor and acceptor labels being close together.
Where [4] appears, read: EGFR Wildtyp- 2 mM ATP IC50 [mol/l] (median).
Where [5] appears, read: read-out: EGFR Wildtyp- 2 mM ATP IC50 [mol/l] (median).

T1 sequence (P48729 whole entry, the tested form may be a part): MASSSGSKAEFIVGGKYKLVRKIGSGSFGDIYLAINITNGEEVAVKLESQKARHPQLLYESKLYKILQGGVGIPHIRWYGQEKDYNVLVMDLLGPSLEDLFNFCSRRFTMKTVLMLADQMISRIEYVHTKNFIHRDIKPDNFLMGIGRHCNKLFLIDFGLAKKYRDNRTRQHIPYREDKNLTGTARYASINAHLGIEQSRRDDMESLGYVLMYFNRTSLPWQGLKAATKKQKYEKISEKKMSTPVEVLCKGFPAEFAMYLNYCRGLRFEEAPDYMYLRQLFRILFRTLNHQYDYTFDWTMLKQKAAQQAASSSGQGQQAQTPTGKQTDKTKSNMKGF
Sequence of wild-type Epidermal Growth Factor Receptor (EGFR) (P00533 669-1210): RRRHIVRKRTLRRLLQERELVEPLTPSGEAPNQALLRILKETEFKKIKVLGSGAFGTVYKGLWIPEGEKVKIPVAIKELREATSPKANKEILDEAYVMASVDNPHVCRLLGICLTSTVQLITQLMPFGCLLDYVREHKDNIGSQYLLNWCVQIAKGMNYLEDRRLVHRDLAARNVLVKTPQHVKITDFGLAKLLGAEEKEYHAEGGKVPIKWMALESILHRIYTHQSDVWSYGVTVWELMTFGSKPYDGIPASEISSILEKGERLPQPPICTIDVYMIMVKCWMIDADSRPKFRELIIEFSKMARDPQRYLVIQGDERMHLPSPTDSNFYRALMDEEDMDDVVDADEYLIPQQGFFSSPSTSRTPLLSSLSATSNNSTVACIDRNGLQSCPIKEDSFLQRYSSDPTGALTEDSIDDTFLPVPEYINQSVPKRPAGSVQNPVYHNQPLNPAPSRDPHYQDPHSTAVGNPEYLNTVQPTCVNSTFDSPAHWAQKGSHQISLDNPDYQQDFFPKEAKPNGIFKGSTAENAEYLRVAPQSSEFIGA
Sequence of human CSNK1D (P48730 whole entry): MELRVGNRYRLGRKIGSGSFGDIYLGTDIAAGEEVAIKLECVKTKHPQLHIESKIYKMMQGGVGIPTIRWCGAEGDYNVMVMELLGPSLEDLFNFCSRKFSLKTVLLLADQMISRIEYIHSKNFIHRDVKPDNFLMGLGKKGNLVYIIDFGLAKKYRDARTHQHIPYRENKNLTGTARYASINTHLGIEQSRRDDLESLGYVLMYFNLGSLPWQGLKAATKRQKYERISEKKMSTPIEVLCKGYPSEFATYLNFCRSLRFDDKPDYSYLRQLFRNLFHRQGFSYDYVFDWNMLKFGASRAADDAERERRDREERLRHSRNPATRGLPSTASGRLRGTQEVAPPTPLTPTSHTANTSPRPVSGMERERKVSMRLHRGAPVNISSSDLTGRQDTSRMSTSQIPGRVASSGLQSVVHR

With `CN(C)CCCC(C(=O)Nc1cc(-c2[nH]c3c(c2Nc2ccccc2)C(=O)N(C)CC3)ccn1)c1ccccc1` (single isomer, unassigned; (-)) [Example 59, (−)-N-[4-(3-anilino-5-methyl-4-oxo-4,5,6,7-tetrahydro-1H-pyrrolo[3,2-c]pyridin-2-yl)pyridin-2-yl]-5-(dimethylamino)-2-phenylpentanamide], the IC50 on human CSNK1A1 [1] is 94.3 nM; on human CSNK1A1 [2] it was 7300 nM; at human CSNK1D, 86.2 nM; in assay [3] (setting [4]), 16.3 µM.
Taken in the same sequence, the figures for `CN1CCc2[nH]c(-c3ccnc(NC(=O)C(CC(F)F)c4ccc(F)cc4)c3)c(Nc3ccccc3)c2C1=O` (single isomer, unassigned; (-)) [Example 62, (−)-N-[4-(3-anilino-5-methyl-4-oxo-4,5,6,7-tetrahydro-1H-pyrrolo[3,2-c]pyridin-2-yl)pyridin-2-yl]-4,4-difluoro-2-(4-fluorophenyl)butanamide] were 21 nM, 1500 nM, 29.7 nM and above 20 µM.
Taken in the same sequence, the figures for `CCC(C(=O)Nc1cc(-c2[nH]c3c(c2Nc2ccccc2)C(=O)N(C)CC3)ccn1)c1ccc(F)cc1` (single isomer, unassigned; (-)) [Example 76, (−)-N-[4-(3-anilino-5-methyl-4-oxo-4,5,6,7-tetrahydro-1H-pyrrolo[3,2-c]pyridin-2-yl)pyridin-2-yl]-2-(4-fluorophenyl)butanamide] were 14.4 nM, 506 nM, 17.5 nM and above 20 µM.
With `CC(C(=O)Nc1cc(-c2[nH]c3c(c2Nc2ccccc2)C(=O)N(C)CC3)ccn1)c1ccc(Cl)cc1` (single isomer, unassigned; (-)) [Example 80, (−)-N-[4-(3-anilino-5-methyl-4-oxo-4,5,6,7-tetrahydro-1H-pyrrolo[3,2-c]pyridin-2-yl)pyridin-2-yl]-2-(4-chlorophenyl)propanamide], the IC50 at human CSNK1A1 [1] was 24.1 nM; on human CSNK1A1 [2] it was 2840 nM; at human CSNK1D it was 30.3 nM; in assay [3] (setting [4]) it was above 20 µM.
Turning to `CC1Cc2[nH]c(-c3ccnc(NC(=O)Cc4ccc(F)cc4)c3)c(Nc3ccccc3)c2C(=O)N1C` (single isomer, unassigned; (-)) [Example 90, (−)-N-{4-[3-anilino-5,6-dimethyl-4-oxo-4,5,6,7-tetrahydro-1H-pyrrolo[3,2-c]pyridin-2-yl]pyridin-2-yl}-2-(4-fluorophenyl)acetamide], the IC50 is 1.43 nM on human CSNK1A1 [1], 62.4 nM on human CSNK1A1 [2], 3.79 nM on human CSNK1D and 0.561 µM in assay [3] (setting [4]).
As to `CC(C(=O)Nc1cc(-c2[nH]c3c(c2Nc2ccccc2)C(=O)N(C)C(C)C3)ccn1)c1ccc(F)cc1` (single isomer, unassigned; (-)) [Example 93, (−)-N-{4-[3-anilino-5,6-dimethyl-4-oxo-4,5,6,7-tetrahydro-1H-pyrrolo[3,2-c]pyridin-2-yl]pyridin-2-yl}-2-(4-fluorophenyl)propanamide], the IC50 on human CSNK1A1 [1] was 47.2 nM; at human CSNK1A1 [2], 3180 nM; on human CSNK1D it was 47.3 nM; in assay [3] (setting [4]) it was above 20 µM.
On to `CC(C(=O)Nc1cc(-c2[nH]c3c(c2Nc2ccccc2)C(=O)N(C)C(C)C3)ccn1)c1ccc(F)cc1` (single isomer, unassigned; (-)) [Example 94, (−)-(2RS)—N-{4-[(6R*)-3-anilino-5,6-dimethyl-4-oxo-4,5,6,7-tetrahydro-1H-pyrrolo[3,2-c]pyridin-2-yl]pyridin-2-yl}-2-(4-fluorophenyl)propanamide], for which the IC50 came out at 4.33 nM on human CSNK1A1 [1], 154 nM at human CSNK1A1 [2], 7.02 nM at human CSNK1D and 4.41 µM in assay [3] (setting [4]).
Taken in the same sequence, the figures for `CC(C(=O)Nc1cc(-c2[nH]c3c(c2Nc2ccccc2)C(=O)N(C)C(C)C3)ccn1)c1ccc(F)cc1` (single isomer, unassigned; (-)) [Example 95, (−)-N-{4-[3-anilino-5,6-dimethyl-4-oxo-4,5,6,7-tetrahydro-1H-pyrrolo[3,2-c]pyridin-2-yl]pyridin-2-yl}-2-(4-fluorophenyl)propanamide] were 46.2 nM, 2460 nM, 45.3 nM and 6.31 µM.
Taken in the same sequence, the figures for `CC1Cc2[nH]c(-c3ccnc(NC(=O)Cc4ccncc4)c3)c(Nc3ccccc3)c2C(=O)N1C` (single isomer, unassigned; (-)) [Example 99, (−)-N-{4-[(6S*)-3-anilino-5,6-dimethyl-4-oxo-4,5,6,7-tetrahydro-1H-pyrrolo[3,2-c]pyridin-2-yl]pyridin-2-yl}-2-(pyridin-4-yl)acetamide] were 3.78 nM, 25.9 nM, 5.1 nM and 0.329 µM.
Taken in the same sequence, the figures for `CC1Cc2[nH]c(-c3ccnc(NC(=O)Cc4ccc(F)cc4)c3)c(Nc3ccccc3F)c2C(=O)N1C` (single isomer, unassigned; (-)) [Example 102, (−)-N-{4-[3-(2-fluoroanilino)-5,6-dimethyl-4-oxo-4,5,6,7-tetrahydro-1H-pyrrolo[3,2-c]pyridin-2-yl]pyridin-2-yl}-2-(4-fluorophenyl)acetamide] were 3.6 nM, 51 nM, 7.21 nM and 2.33 µM.
For `CC1Cc2[nH]c(-c3ccnc(NC(=O)C(CC(F)F)c4ccc(F)cc4)c3)c(Nc3ccccc3F)c2C(=O)N1C` (single isomer, unassigned; (-)) [Example 104, (−)-4,4-difluoro-N-{4-[3-(2-fluoroanilino)-5,6-dimethyl-4-oxo-4,5,6,7-tetrahydro-1H-pyrrolo[3,2-c]pyridin-2-yl]pyridin-2-yl}-2-(4-fluorophenyl)butanamide], the IC50 is 67.9 nM at human CSNK1A1 [1], 4490 nM at human CSNK1A1 [2], 60.5 nM at human CSNK1D and above 20 µM in assay [3] (setting [5]).
Taken in the same sequence, the figures for `CC1Cc2[nH]c(-c3ccnc(NC(=O)C(CC(F)F)c4ccc(F)cc4)c3)c(Nc3ccccc3F)c2C(=O)N1C` (single isomer, unassigned; (-)) [Example 106, (−)-(2RS)-4,4-difluoro-N-{4-[(6R*)-3-(2-fluoroanilino)-5,6-dimethyl-4-oxo-4,5,6,7-tetrahydro-1H-pyrrolo[3,2-c]pyridin-2-yl]pyridin-2-yl}-2-(4-fluorophenyl)butanamide] were 17.8 nM, 56.2 nM, 22.3 nM and above 20 µM.
Taken in the same sequence, the figures for `CC1Cc2[nH]c(-c3ccnc(NC(=O)C(CC(F)F)c4ccc(F)cc4)c3)c(Nc3ccccc3F)c2C(=O)N1C` (single isomer, unassigned; (-)) [Example 107, (−)-4,4-difluoro-N-{4-[3-(2-fluoroanilino)-5,6-dimethyl-4-oxo-4,5,6,7-tetrahydro-1H-pyrrolo[3,2-c]pyridin-2-yl]pyridin-2-yl}-2-(4-fluorophenyl)butanamide] were 45.7 nM, 3160 nM, 59.2 nM and above 20 µM.
For `CC1(C)Cc2[nH]c(-c3ccnc(NC(=O)C(CC(F)F)c4ccc(F)cc4)c3)c(Nc3cccc(F)c3Cl)c2C(=O)N1` (single isomer, unassigned; (-)) [Example 110, (−)-N-{4-[3-(2-chloro-3-fluoroanilino)-6,6-dimethyl-4-oxo-4,5,6,7-tetrahydro-1H-pyrrolo[3,2-c]pyridin-2-yl]pyridin-2-yl}-4,4-difluoro-2-(4-fluorophenyl)butanamide], the IC50 at human CSNK1A1 [1] was 262 nM; on human CSNK1A1 [2], above 20000 nM; on human CSNK1D it was 249 nM; in assay [3] (setting [4]), 4.13 µM.
In the same order, the values of `CC1(C)Cc2[nH]c(-c3ccnc(NC(=O)C(CC(F)F)c4ccc(F)cc4)c3)c(Nc3cccc(F)c3)c2C(=O)N1` (single isomer, unassigned; enantiomer 1) [Example 120, 4,4-difluoro-N-{4-[3-(3-fluoroanilino)-6,6-dimethyl-4-oxo-4,5,6,7-tetrahydro-1H-pyrrolo[3,2-c]pyridin-2-yl]pyridin-2-yl}-2-(4-fluorophenyl)butanamide (Enantiomer 1)] are 9.64 nM, 477 nM, 11 nM and above 20 µM.
In the same order, the values of `O=C1NC2(CCC2)Cc2[nH]c(-c3ccnc(NC(=O)C(CC(F)F)c4ccc(F)cc4)c3)c(Nc3cccc(F)c3Cl)c21` (single isomer, unassigned; enantiomer 1) [Example 124, (−)-N-{4-[3′-(2-chloro-3-fluoroanilino)-4′-oxo-1′,4′,5′,7′-tetrahydrospiro[cyclobutane-1,6′-pyrrolo[3,2-c]pyridin]-2′-yl]pyridin-2-yl}-4,4-difluoro-2-(4-fluorophenyl)butanamide (Enantiomer 1)] are 74.6 nM, above 5710 nM, 58.7 nM and above 20 µM.
